Assay results as given in patent EP4623928A1, “GLP-1R ANTAGONISTS FOR THE TREATMENT OF CANCER” (Fiorina, Paolo, priority 2024, dated 2025).

Legend:
[1] = tested on: GLP-1R^pos and GLP-1R^neg CD3^+ T cells; assay: Proliferation, apoptosis and IFN-γ expression of GLP-1Rpos and GLP-1Rneg CD3+ T cells stimulated with anti-CD3/anti-CD28; assay type: cell-based, C57BL/6 mice; settings: for proliferation rate: anti-CD3/anti-CD28
Procedure: FACS analysis was performed with a FACSCelesta (BD Bioscience) on murine splenocytes or on single cells suspension prepared upon collagenase-digestion of grafted organs. We used the following antibodies: APC conjugated Rat anti-mouse CD62L, PE conjugated Rat anti-mouse CD44, PerCp conjugated Rat anti-mouse CD4 or PerCp conjugated Rat anti-mouse CD8, (Biolegend, San Diego, CA, USA), and APC conjugated anti-mouse/human insulin (R&D, Minneapolis, MN - USA). GLP-1R was detected by indirect staining; the primary antibody was purchased from Alomone Lab (Jerusalem, Israel) and variably associated with FITC or APC-conjugated anti-isotype Ab (BD and Biolegend respectively). For intracellular staining, splenocytes were isolated from BL6 mice were incubated with and w/o anti CD3/CD28 used both at 0.5 µg/ml, Exe-4 (0.1nM, 1nM and 10nM) or with Exe-4+Exe-9-39 (0.1nM, 1nM and 10nM). After 24hours incubation, cells were collected, washed and plated in RPMI 10% FBS, then stimulated with 50 ng/ml PMA (Sigma Aldrich), 500 ng/ml ionomycin (Sigma Aldrich) and Golgi Stop as recommended by the manufacturer (BD Biosciences, San Diego, CA, USA) for 4h in a humidified incubator 37°C, 5% CO2. After incubation, cells were collected, washed and stained for surface markers, i.e CD4 BUV737, CD8 BUV395, (BD Biosciences, San Diego, CA, USA) and GLP-1R FITC (Alomone Lab, Jerusalem, Israel). They were further fixed, permeabilized using the BD Cytofix/Cytoperm Kit (BD Biosciences, San Diego, CA, USA), and stained with a mAb against IFN-γ (eBioscience). Finally, CD4^+ GLP-1R^+ IFN-γ^+ and CD8^+ GLP-1R^+ IFN-γ ^+ T cells were assessed by flow cytometry analysis. For the expression of GLP-1R on innate immune cells, the following antibodies were used: CD4 BB700, NK1.1 BV421, CD127 BV605, CD44 PE, GLP-1R FITC/PD1 FITC, Viability Dye BV510 (NKT subset); CD45 BV786, CD3 BB700, NK1.1 BV421, GLP-1R FITC/PD1 FITC, Viability Dye BV510 (NK subset); CD45 BB700, CD11c BV786, CD11b BV421, GLP-1R FITC/PD1 FITC, Viability Dye BV510; CD45 PE-CF594, CD127 BV605, NK1.1 BV421, CD335 BV786, CD49a BV650, CD117 BB700, IL33R PE, IL23R BV711, GLP-1R FITC/PD1 FITC, Viability Dye BV510 (LCs subset). For the determination of the chemokine receptors profile of GLP-1R^+ CD3^+ T cells, the following antibodies were used: GLP-1R FITC, CXCR4 PE, CX3CR1 BV605, CCR2 BV421, CCR5 BV650, CCR7 BV786, CXCR3 BB700, CXCR6 BV711, Viability Dye BV510.

[2] = tested on: untransduced-mock and pmY-GLP-1R transduced CD3^+ T cells; assay: Transwell migration assay toward SDF-1, mock and pmY-GLP-1R transduced CD3+ T cells; assay type: cell-based, murine; settings: both untransduced-mock and pmY-GLP-1R transduced CD3^+ T cells, Exe-4 (1 nM)
Procedure: Transwell migration assays were performed on GLP-1R^pos and GLP-1R^neg CD3^+ cells or respectively untransduced-mock CD3^+ T cells or pmY-GLP-1R transduced CD3^+ T cells, freshly isolated or activated with anti-CD3/CD28 (0.5 µg /ml each) in the presence or not of Exe-4 (1 nM). Chemotaxis assessments via transwell migration assay were performed using polycarbonate membranes with 5 µm pores (Corning) in accordance with the manufacturer's instructions and as previously published (42). Cells were washed, re-suspended in migration media (RPMI), and added to the upper chamber of the plate, while migration media containing 0 or 50 ng/mL SDF-1 (R&D Systems) was added to the bottom chamber. Treated cells were incubated over night at 37°C to migrate through the polycarbonate membrane into the bottom chamber. Input cell counts were obtained by flow cytometry with a BD FACSCelesta (BD, Biosciences) as well as cell counts of migrated cells in the lower chambers. Migration percentage was calculated as the number of cells in the lower chamber (migrated) compared to total input cell count for three separate wells. Mean migration percentages and standard deviations (SD) were calculated across the different donor cell lots. Analysis of lower chambers without SDF-1 (negative gradients) was used to control for any nonspecific increase in chemotaxis.

[3] = tested on: untransduced-mock and pmY-GLP-1R transduced CD3^+ T cells; assay: Proliferation, apoptosis and IFN-γ expression of untransduced-mock and pmY-GLP-1R transduced CD3+ T cells; assay type: cell-based, murine; settings: Exe-4
Procedure: The mGLP-1R cDNA construct (Origene) was inserted into the pMY-IRES-GFP plasmid (Cell BioLabs, Inc., San Diego, CA). The Platinum-E Retroviral Packaging cell line was transfected with the pMY-IRES-GFP plasmid expressing GLP-1R using polybrene (Santa Cruz Biotechnology), and supernatant was collected. T cells were activated for 48 hours in the presence of soluble anti-CD3/CD28 at 0.5 µg/ml each in the presence of IL-2 (400 ng/ml) (R&D Systems), and viral supernatant was added. The upregulation of GLP-1R was assessed by FACS and western blot analysis.

[4] = tested on: CD3^+ T cells; assay: Phosphoproteomic array of CD3+ T cells; assay type: cell-based, murine; settings: Exe-4 (1 nM), 24 hours, vs untreated
Procedure: Isolated CD3^+ T cells from splenocytes were treated with Exendin-4 (Exe-4) for 24hrs or left untreated. Total soluble proteins from both cell extracts, approximately 7×10^6 cells per conditions were used, all steps were performed using the Phospho Explorer Antibody Array kit (Full Moon Biosystems, PEX100) as recommended by the manufacturer (41). Next, soluble extracted proteins were biotinylated and were next incubated with a mixture of Cy3-streptavidin-detection buffer and the array slides were incubated on a rotating shaker for 30 min at RT. After, several washing steps, the array slides were allowed to dry by centrifugation. Dry array slides were analyzed by a slide-based microarray scanner as recommended by the manufacturer.

[5] = both untransduced-mock and pmY-GLP-1R transduced CD3^+ T cells

Exendin-4 [Exe-4]
proliferation rate ([1]; GLP-1R^neg CD3^+ T cells, Exe-4 (1 nM)): but not of GLP-1R^neg CD3^+ T cells
proliferation rate ([1]; GLP-1R^pos CD3^+ T cells, Exe-4 (1 nM)): slightly modulated
IFN-y expression ([1]; GLP-1R^pos and GLP-1R^neg CD3^+ T cells, Exe-4 (1 nM)): no evident effect
apoptosis (GLP-1R^pos more apoptotic than GLP-1R^neg) ([1]; GLP-1R^pos vs GLP-1R^neg CD3^+ T cells, with or without Exe-4): independently of Exe-4 treatment
migratory ability in response to SDF-1 [2]: reduced
IFN-γ expression [3, 5]: without any effect
proliferation [3, 5]: no effect
apoptosis ([3]; pmY-GLP-1R transduced CD3^+ T cells only): significantly increased
expression and activation of signalling molecules (phosphoproteomic arrays) [4]: altered the expression and the activation of several signalling molecules
